Patent US5340727A, “GPIbα fragments and recombinant DNA expression vectors” (The Scripps Research Institute, priority 1990, dated 1994)
Where no end group is shown, it is not given here.

Experiments:
vWF-GPIb interaction [1] = molecular target: T1, vWF-GPIb interaction (Homo sapiens, UniProt P04275+P07359); assay: Ristocetin-induced binding of 125I-labeled vWF to fresh or formalin-fixed platelets; settings: peptides tested individually; read-out: IC50, inhibition of binding of vWF to the GPIb of platelets by synthetic peptides
T1 construct: endogenous in cells; host or cells: fresh or formalin-fixed platelets
T1 sequence (P07359 17-652): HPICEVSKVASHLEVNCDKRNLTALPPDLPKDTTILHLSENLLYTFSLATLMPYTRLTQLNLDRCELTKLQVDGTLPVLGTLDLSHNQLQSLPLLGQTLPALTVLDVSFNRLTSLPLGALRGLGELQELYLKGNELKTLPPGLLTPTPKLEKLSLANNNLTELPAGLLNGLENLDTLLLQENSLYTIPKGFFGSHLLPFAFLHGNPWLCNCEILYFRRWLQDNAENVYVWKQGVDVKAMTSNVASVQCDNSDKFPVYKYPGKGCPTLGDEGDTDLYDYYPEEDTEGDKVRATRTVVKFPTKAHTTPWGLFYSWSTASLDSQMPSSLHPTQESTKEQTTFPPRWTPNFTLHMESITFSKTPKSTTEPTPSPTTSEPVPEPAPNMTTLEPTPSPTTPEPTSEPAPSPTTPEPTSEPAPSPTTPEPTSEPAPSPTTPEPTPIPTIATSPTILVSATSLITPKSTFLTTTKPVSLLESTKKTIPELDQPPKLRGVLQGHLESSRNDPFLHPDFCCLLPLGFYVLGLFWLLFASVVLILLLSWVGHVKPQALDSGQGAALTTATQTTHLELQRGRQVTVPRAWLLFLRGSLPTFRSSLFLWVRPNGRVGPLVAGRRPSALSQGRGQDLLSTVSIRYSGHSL
T1 sequence (P04275 764-2813 limits assumed): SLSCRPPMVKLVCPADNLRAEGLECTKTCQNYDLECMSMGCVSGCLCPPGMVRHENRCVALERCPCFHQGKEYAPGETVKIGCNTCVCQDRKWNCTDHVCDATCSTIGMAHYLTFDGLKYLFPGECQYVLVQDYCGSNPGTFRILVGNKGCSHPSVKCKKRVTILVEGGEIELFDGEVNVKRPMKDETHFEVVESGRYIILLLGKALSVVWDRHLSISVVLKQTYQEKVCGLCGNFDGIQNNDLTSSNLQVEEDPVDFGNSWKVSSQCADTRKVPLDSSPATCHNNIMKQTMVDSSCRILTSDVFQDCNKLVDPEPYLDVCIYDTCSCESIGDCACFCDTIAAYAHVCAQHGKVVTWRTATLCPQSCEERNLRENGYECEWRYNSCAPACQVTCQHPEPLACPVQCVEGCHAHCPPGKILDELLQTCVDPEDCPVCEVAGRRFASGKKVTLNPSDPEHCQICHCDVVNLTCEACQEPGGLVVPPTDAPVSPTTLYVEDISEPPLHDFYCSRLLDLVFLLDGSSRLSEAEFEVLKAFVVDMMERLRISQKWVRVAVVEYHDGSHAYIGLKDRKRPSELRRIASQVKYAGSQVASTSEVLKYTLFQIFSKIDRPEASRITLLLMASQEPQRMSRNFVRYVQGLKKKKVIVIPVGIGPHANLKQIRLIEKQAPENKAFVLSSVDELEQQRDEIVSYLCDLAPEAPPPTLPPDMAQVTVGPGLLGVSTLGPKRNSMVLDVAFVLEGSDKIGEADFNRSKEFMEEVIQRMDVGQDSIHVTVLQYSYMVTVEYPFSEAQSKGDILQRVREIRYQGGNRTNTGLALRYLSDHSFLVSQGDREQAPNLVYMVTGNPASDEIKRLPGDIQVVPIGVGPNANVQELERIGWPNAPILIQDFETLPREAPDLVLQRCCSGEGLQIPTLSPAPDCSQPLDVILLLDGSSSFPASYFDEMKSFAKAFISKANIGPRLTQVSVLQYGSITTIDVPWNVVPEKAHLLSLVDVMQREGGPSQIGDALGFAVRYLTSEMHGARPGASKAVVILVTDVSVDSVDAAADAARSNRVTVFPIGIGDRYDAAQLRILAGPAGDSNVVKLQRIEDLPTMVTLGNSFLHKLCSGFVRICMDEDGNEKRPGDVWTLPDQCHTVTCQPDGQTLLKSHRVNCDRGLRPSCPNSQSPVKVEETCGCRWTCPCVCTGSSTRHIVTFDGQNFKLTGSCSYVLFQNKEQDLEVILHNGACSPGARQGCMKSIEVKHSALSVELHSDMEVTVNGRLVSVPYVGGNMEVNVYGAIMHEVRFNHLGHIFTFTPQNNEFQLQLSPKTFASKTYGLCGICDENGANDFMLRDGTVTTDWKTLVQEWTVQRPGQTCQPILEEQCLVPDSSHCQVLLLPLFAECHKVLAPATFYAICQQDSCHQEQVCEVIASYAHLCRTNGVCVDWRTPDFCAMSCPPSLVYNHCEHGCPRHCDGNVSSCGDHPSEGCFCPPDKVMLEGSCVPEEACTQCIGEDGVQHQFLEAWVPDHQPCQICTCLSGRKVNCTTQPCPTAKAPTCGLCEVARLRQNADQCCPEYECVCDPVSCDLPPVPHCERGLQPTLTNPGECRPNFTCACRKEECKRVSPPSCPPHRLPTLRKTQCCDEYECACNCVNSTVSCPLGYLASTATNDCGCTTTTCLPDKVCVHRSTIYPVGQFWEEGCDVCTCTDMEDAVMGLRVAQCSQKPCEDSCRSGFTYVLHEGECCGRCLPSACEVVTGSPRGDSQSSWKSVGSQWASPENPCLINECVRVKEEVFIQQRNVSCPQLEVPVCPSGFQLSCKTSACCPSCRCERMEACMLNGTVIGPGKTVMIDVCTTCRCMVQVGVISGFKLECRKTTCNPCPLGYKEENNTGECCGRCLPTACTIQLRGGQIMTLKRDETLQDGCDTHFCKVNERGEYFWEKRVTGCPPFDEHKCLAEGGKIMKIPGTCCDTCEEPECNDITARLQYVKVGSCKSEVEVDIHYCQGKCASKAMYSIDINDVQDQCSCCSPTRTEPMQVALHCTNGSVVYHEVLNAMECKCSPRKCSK
Procedure: The assay system is based on the use of ^125 I-labeled vWF and fresh or formalin-fixed platelets; ristocetin was used to induce the binding of vWF to GPIb. After incubation for 30 minutes at 37° C., without stirring, separation of bound platelet from free vWF ligand was achieved by centrifugation through 20% sucrose in Tyrode buffer, followed by measurement of the bound radioactivity as described in Ruggeri et al., J. Clin. Invest., 72, 1-12 (1983). Nonspecific binding was evaluated for selected points by measuring the binding in the presence of a 40-fold excess of unlabeled vWF. Binding isotherms were evaluated by Scatchard-type analysis to determine binding parameters (including the estimate of nonspecific binding) using the computer-assisted program "Ligand" as described in Munson, Methods Enzymol., 92, 542-576 (1983).

GPIb-IX (Homo sapiens) = molecular target: T2, GPIb-IX (Homo sapiens); assay: Ristocetin-dependent 125I-vWF binding to formaldehyde-fixed washed platelets (Examples 5-7); settings: 125I-vWF 2 μg/ml; read-out: concentration that inhibits 50% of ristocetin-induced binding of vWF
T2 construct: which utilizes washed platelets fixed with formaldehyde; endogenous in cells; host or cells: washed platelets fixed with formaldehyde
T2 sequence (P04275 764-2813 limits assumed): as above
Procedure: (§1) Percent inhibition of binding of vWF to platelets was measured using I^125 labelled vWF prepared according to the methods of Ruggeri et al. See also DeMarco et al., J. Clin. Invest., 68, 321-328 (1981). Binding of vWF to platelets induced by ristocetin and/or botrocetin (and inhibition thereof) was measured according to the method of MacFarlane et al., Thromb. Diath. Haemorrh., 34, 306-308 (1975) which utilizes washed platelets fixed with formaldehyde. […] Each peptide, used at a final concentration of 500 μmol/l with a ^125 I-vWF concentration of 2 μg/ml, is identified by the same numeral used in the top part of the figure.
(§2) Further experiments were performed with a constant ^125 I-vWF concentration of 2 μg/ml and varying peptide concentration, as indicated on the FIG. 2 abscissa. […] One hundred percent binding was that measured in the presence of Hepes buffer instead of peptide.
(§3) Binding inhibition experiments were conducted analogous to those in Example 6 using an I^125 -vWF concentration of 2 μg/ml.

GPIb-IX = GPIb-IX (Homo sapiens, UniProt P04275); assay: biochemical
GPIb-IX, sequence (P04275 764-2813 limits assumed): as above
Procedure: as §1, §2, §3

vWF-GPIb interaction [2] = molecular target: T1, vWF-GPIb interaction; assay: Inhibition of ristocetin-induced binding of vWF to formalin-fixed platelets (Example 1); settings: 125I-vWF 5 μg/ml, ristocetin 1.0 mg/ml
Procedure: To test the inhibitory activity of the peptides of the present invention, formalin-fixed platelets were used at a final concentration of 1×10^11 /l. Assayed peptides were then added at various concentrations. One third final volume of vWF-deficient plasma was then added followed by ^125 I-vWF at a final concentration of 5 μg/ml. Ristocetin was then added at a concentration of 1.0 mg/ml. After incubation for o30 minutes at room temperature, bound and free vWF ligand were separated by centrifuging 50 μl of the mixture through 300 μl of 20% sucrose at 12,000 g for 4 minutes. The platelet pellet was then separated from the rest of the mixture to determine platelet-bound radioactivity. Nonspecific binding was defined as the residual binding of ^125 I-vWF in the presence of a 50-fold excess of unlabeled vWF but in the absence of any peptides.
Percent inhibition with a given peptide was calculated by dividing the specific cpm […].

vWF-GPIb interaction [3] = molecular target: T1, vWF-GPIb interaction; assay: Inhibition of asialo-vWF binding to fresh platelets (Example 2); settings: 125I-asialo-vWF 5 μg/ml
Procedure: Fresh platelets were prepared by drawing blood into a solution of 11 mM trisodium citrate and 2 mM EDTA. Platelet-rich plasma was then prepared by differential centrifugation. The platelet count was then adjusted to 1×10^11 /l. Peptides were then added to various concentrations and ^125 I-asialo-vWF was then added at a final concentration of 5 μg/ml. After incubation for 30 minutes at room temperature, bound and free vWF ligand were separated by centrifuging 50 μl of the mixture through 300 μl of 20% sucrose at 12,000 g for 4 minutes. The platelet pellet was then separated from the rest of the mixture to determine platelet-bound radioactivity. Non-specific binding was defined as the residual binding of ^125 I- asialo-vWF in the presence of a 50-fold excess of unlabeled vWF but in the absence of any peptides.
Percent inhibition with a given peptide was calculated by dividing the specific cpm obtained when various concentrations of peptide were added by the specific cpm in the absence of peptide.

DKRNLTALPPDLPKDTT
IC50 (vWF-GPIb interaction [1]): ≤ 500 µM

EEDTE [EEDTE]
IC50 (vWF-GPIb interaction [1]): > 500 µM

EEDTEGDKVRATRTV
IC50 (vWF-GPIb interaction [1]): ≤ 500 µM

GDTDLYDYYPEEDTE [peptide 25]
IC50 (vWF-GPIb interaction [1]): ≤ 500 µM
IC50 (GPIb-IX (Homo sapiens)): 420 µM
IC50 (GPIb-IX): 530 µM

KQGVDVKAMTSNVAS
IC50 (vWF-GPIb interaction [1]): ≤ 500 µM

KRKRKRKRKR [(KR)5]
IC50 (vWF-GPIb interaction [2]): 13 µM
IC50 (vWF-GPIb interaction [3]): 1.7 µM

KRKRKRKRKRKRKR [(KR)7]
IC50 (vWF-GPIb interaction [2]): 9 µM

NLTALPPDLPKDTTI
IC50 (vWF-GPIb interaction [1]): ≤ 500 µM

PGLLTPTPKLEKLSL
IC50 (vWF-GPIb interaction [1]): ≤ 500 µM

PPDLPKDTT
IC50 (vWF-GPIb interaction [1]): > 500 µM

PPDLPKDTTILHLSE
IC50 (vWF-GPIb interaction [1]): ≤ 500 µM
